ChEMBL document CHEMBL3120096 (J Med Chem, 2014)
≈ marks a conversion by molar mass, not a printed value.

Key:
[1] = Oral bioavailability in cynomolgus monkey at 1 to 20 mg/kg; type: ADME, organism-based, Macaca fascicularis; details: in vivo
Homo sapiens = species: Homo sapiens; experiment: Selectivity ratio of Ki for JAK2 (unknown origin) to Ki for LRRK2 (unknown origin)
[2] = Reversible inhibition of CYP in human liver microsomes by mass spectrophotometric analysis; type: ADME
Cytochrome P450 1A2 [3] = target: T1, Cytochrome P450 1A2 (Homo sapiens, UniProt P05177); experiment: Time dependent inhibition of CYP1A2 in human liver microsomes using phenacetin as substrate by HPLC-MS analysis; type: ADME
T1 sequence (P05177 whole entry): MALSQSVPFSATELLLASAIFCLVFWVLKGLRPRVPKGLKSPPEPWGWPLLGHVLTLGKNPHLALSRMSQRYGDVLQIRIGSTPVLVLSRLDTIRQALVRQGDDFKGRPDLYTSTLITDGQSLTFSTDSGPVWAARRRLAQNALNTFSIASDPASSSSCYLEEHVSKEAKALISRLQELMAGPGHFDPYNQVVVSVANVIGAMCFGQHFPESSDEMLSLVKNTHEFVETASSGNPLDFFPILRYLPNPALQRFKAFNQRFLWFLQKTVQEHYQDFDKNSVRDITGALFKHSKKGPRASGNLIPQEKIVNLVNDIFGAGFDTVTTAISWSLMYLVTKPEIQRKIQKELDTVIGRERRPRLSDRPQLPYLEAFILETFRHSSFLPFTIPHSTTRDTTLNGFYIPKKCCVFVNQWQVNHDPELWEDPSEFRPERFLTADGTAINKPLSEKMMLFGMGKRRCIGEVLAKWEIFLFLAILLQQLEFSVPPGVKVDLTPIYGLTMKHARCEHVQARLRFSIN

[4] = Ratio of unbound drug level in brain to plasma in Sprague-Dawley rat; type: ADME, organism-based
[5] = Clearance in Sprague-Dawley rat at 1 mg/kg, po and 0.5 mg/kg, iv; type: ADME, organism-based; details: in vivo
Rattus norvegicus = experiment: Unbound clearance in Sprague-Dawley rat at 1 mg/kg, po and 0.5 mg/kg, iv; type: ADME, organism-based; details: in vivo
[6] = Clearance in rat hepatocytes at 1 uM by LC-MS/MS analysis; type: ADME, cell-based, Hepatocyte
[7] = Clearance in human hepatocytes at 1 uM by LC-MS/MS analysis; type: ADME, cell-based, Hepatocyte
[8] = target: T2, Leucine-rich repeat serine/threonine-protein kinase 2 (Homo sapiens, UniProt Q5S007); experiment: Inhibition of LRRK2 (unknown origin) phosphorylation by cell-based assay
[9] = target: T2, Leucine-rich repeat serine/threonine-protein kinase 2; experiment: Inhibition of LRRK2 (unknown origin)
MDR1 (P-gp, ABCB1) = MDR1 (P-gp, ABCB1) (Homo sapiens, UniProt P08183); experiment: Activity at human MDR1 transfected in MDCK cells assessed as efflux ratio of apparent permeability from basolateral to apical side over apical to basolateral side at 5 uM; type: ADME, cell-based
Liver microsome [10] = experiment: Drug metabolism in human liver microsomes assessed as glucuronidated parent compound level after 3 hrs; type: ADME
[11] = Oral bioavailability in cynomolgus monkey at 1 mg/kg; type: ADME, organism-based, Macaca fascicularis; details: in vivo
Cynomolgus monkey = experiment: Unbound clearance in cynomolgus monkey at 1 mg/kg, po and 0.5 mg/kg, iv; type: ADME, organism-based, Macaca fascicularis; details: in vivo
[12] = Half life in cynomolgus monkey at 0.5 mg/kg, iv; type: ADME, organism-based, Macaca fascicularis; design: dose 0.5 mg/kg, route intravenous; details: in vivo
[13] = Clearance in cynomolgus monkey at 1 mg/kg, po and 0.5 mg/kg, iv; type: ADME, organism-based, Macaca fascicularis; details: in vivo
[14] = Plasma protein binding in cynomolgus monkey at 5 uM after 4 hrs by equilibrium dialysis technique; type: ADME, cell-free, Macaca fascicularis; details: read-out: PPB (converted)
Mus musculus = experiment: In vivo inhibition of human LRRK2 G2019S Parkinson's disease mutant expressed in BAC mouse assessed as inhibition of autophosphorylation at Ser1292 in brain at 10 to 50 mg/kg, ip after 1 to 6 hrs; type: functional, organism-based; design: dose 10-50 mg/kg, route intraperitoneal
Cytochrome P450 2B6 = target: T3, Cytochrome P450 2B6 (Homo sapiens, UniProt P20813); experiment: Induction of CYP2B6 in human hepatocytes; type: ADME, cell-based, Hepatocyte
T3 sequence (P20813 whole entry): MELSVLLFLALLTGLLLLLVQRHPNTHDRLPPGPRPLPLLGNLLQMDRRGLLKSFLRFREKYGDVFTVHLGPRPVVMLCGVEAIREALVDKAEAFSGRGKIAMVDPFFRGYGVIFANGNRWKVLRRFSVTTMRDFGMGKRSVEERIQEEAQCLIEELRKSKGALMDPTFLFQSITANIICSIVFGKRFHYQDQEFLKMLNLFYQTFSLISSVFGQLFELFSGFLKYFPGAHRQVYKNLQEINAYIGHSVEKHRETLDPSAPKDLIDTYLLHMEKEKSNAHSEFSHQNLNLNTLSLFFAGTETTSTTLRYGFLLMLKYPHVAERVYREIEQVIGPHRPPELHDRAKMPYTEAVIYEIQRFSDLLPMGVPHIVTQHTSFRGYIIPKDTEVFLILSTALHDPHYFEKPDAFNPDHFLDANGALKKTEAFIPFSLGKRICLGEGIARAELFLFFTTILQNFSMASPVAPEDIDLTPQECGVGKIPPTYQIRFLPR

Cytochrome P450 1A2 [15] = target: T1, Cytochrome P450 1A2; experiment: Induction of CYP1A2 in human hepatocytes; type: ADME, cell-based, Hepatocyte
Cytochrome P450 3A4 = Cytochrome P450 3A4 (Homo sapiens, UniProt P08684); experiment: Induction of CYP3A4 in human hepatocytes; type: ADME, cell-based, Hepatocyte
Cytochrome P450 1A2 [16] = target: T1, Cytochrome P450 1A2; experiment: Reversible inhibition of CYP1A2 in human liver microsomes using phenacetin as substrate by mass spectrophotometric analysis; type: ADME
[17] = Oral bioavailability in Sprague-Dawley rat at 50 mg/kg; type: ADME, organism-based; details: in vivo
[18] = target: Ribosomal protein S6 kinase alpha-2 (Homo sapiens) (UniProt Q15349); experiment: Inhibition of RSK3 (unknown origin) at 0.1 uM relative to control
[19] = target: Ribosomal protein S6 kinase alpha-3 (Homo sapiens) (UniProt P51812); experiment: Inhibition of RSK2 (unknown origin) at 0.1 uM relative to control
[20] = target: Ribosomal protein S6 kinase alpha-6 (Homo sapiens) (UniProt Q9UK32); experiment: Inhibition of RSK4 (unknown origin) at 0.1 uM relative to control
[21] = target: Aurora kinase B (Homo sapiens) (UniProt Q96GD4); experiment: Inhibition of aurora-B (unknown origin) at 0.1 uM relative to control
Hepatocyte = experiment: Drug metabolism in human hepatocytes assessed as glucuronidated parent compound level after 3 hrs; type: ADME, cell-based
[22] = target: T4, Dual specificity protein kinase TTK (Homo sapiens, UniProt P33981); experiment: Inhibition of TTK (unknown origin)
T4 sequence (P33981 whole entry): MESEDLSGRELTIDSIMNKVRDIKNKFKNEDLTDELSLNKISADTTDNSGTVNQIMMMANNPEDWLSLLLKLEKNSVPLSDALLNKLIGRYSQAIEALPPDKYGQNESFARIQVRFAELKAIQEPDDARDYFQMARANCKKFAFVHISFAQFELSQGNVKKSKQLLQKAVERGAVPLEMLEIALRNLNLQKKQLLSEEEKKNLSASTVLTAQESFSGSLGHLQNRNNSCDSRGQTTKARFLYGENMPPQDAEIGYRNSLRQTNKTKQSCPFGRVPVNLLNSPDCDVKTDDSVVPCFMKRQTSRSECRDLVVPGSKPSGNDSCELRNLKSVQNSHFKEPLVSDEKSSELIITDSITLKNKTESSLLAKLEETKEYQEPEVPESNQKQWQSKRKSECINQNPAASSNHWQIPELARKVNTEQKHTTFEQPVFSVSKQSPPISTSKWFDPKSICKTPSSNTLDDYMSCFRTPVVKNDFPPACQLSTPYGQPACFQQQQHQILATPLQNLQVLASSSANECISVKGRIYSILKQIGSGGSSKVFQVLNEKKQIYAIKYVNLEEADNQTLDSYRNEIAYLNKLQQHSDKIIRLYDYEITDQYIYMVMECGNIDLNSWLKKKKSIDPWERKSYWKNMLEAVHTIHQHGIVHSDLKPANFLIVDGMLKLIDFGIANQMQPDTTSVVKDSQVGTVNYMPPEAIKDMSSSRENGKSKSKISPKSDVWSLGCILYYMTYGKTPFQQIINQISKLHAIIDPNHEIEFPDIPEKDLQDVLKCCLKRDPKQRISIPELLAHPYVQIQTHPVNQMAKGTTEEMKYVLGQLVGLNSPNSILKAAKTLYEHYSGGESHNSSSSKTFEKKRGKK

[23] = Thermodynamic solubility of the crystalline form of compound at pH 7.4; type: physicochemical; details: read-out: Therm_solubility
TAK1/TAB1 (Homo sapiens) = TAK1/TAB1 (Homo sapiens) (UniProt Q15750+O43318); experiment: Inhibition of TAK1/TAB1 (unknown origin) at 0.1 uM relative to control; type: protein-complex assay
Liver microsome [24] = experiment: Drug metabolism in human liver microsomes in presence of methoxyamine; type: ADME
Liver microsome [25] = experiment: Drug metabolism in human liver microsomes in presence of glutathione; type: ADME
[26] = Time dependent inhibition of CYP in human liver microsomes by HPLC-MS analysis; type: ADME
[27] = Oral bioavailability in Sprague-Dawley rat at 1 mg/kg; type: ADME, organism-based; details: in vivo

T2 sequence (Q5S007 whole entry): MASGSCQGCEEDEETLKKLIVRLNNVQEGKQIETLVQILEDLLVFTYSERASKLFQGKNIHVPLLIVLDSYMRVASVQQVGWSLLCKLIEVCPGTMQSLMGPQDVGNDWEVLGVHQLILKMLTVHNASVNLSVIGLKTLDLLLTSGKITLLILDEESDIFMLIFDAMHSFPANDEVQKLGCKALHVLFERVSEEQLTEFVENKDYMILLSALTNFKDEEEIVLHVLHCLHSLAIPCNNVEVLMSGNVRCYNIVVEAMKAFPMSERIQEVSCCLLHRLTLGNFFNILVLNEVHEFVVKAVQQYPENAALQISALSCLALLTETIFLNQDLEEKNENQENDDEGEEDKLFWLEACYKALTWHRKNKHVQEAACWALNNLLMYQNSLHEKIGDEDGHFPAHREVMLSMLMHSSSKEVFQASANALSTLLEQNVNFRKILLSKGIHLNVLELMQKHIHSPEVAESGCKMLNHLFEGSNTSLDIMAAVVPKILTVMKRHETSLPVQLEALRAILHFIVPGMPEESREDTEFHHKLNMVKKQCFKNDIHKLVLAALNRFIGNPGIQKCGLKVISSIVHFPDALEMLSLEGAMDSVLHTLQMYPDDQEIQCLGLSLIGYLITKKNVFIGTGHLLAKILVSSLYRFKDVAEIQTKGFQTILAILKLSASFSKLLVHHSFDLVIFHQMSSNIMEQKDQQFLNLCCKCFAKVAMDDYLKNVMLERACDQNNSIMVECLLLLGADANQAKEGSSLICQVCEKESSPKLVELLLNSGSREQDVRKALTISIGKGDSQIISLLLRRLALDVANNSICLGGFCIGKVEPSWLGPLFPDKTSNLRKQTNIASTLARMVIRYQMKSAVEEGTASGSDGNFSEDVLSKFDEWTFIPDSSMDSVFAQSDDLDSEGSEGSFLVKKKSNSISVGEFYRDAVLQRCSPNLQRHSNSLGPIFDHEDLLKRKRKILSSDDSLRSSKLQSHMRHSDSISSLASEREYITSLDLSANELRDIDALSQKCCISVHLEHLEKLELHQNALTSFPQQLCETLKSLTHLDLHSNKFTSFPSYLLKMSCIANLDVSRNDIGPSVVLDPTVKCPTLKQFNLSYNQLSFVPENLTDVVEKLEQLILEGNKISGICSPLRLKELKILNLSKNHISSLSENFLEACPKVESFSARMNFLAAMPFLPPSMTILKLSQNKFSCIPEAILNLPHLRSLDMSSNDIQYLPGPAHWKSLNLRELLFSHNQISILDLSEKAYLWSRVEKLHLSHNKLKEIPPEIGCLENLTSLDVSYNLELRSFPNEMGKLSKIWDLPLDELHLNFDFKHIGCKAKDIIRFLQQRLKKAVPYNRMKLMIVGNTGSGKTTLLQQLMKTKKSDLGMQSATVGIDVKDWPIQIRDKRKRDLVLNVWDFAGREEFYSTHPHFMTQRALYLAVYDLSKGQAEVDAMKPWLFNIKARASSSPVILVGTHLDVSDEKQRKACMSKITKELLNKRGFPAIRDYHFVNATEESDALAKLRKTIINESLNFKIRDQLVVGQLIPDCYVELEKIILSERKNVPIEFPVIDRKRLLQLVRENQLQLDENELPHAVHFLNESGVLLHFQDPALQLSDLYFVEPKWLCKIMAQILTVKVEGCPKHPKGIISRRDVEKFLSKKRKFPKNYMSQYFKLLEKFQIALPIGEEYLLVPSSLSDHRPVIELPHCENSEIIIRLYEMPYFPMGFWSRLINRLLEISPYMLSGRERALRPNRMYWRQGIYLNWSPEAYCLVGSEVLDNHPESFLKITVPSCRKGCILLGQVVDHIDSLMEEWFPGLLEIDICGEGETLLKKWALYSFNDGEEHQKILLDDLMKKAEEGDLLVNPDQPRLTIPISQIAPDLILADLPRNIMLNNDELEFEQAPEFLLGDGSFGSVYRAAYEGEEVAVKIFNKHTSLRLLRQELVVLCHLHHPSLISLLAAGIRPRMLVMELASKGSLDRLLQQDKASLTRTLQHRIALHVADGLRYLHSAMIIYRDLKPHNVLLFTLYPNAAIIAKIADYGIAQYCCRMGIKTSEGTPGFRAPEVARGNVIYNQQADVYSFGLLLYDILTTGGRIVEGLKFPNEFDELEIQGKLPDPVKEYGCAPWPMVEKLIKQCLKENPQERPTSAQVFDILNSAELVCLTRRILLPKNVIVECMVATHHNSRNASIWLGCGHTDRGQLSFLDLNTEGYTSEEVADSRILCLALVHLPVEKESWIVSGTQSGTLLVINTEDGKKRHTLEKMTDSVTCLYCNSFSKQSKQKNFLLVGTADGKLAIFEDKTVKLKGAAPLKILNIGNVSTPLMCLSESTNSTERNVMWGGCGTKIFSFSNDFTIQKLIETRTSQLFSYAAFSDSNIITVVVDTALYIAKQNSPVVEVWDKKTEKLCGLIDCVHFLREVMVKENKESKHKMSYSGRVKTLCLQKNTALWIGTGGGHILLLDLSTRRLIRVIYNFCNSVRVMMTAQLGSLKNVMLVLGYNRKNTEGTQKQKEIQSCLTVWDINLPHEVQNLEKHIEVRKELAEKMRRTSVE
Cytochrome P450 3A4, sequence (P08684 whole entry): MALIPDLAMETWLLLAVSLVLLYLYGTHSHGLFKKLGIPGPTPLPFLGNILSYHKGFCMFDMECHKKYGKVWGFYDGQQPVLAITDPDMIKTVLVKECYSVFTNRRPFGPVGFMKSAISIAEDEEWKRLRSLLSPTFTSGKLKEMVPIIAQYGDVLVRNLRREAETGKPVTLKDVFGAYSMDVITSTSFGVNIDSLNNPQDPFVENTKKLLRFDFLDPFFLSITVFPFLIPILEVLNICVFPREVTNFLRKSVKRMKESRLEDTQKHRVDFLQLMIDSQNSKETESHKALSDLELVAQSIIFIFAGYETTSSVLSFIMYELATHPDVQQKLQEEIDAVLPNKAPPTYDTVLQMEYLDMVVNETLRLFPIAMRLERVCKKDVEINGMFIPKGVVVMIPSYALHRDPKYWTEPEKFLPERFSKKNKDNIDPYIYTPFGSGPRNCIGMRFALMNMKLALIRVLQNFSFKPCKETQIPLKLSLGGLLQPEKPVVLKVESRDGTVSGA
Aurora kinase B (Homo sapiens), sequence (Q96GD4 whole entry): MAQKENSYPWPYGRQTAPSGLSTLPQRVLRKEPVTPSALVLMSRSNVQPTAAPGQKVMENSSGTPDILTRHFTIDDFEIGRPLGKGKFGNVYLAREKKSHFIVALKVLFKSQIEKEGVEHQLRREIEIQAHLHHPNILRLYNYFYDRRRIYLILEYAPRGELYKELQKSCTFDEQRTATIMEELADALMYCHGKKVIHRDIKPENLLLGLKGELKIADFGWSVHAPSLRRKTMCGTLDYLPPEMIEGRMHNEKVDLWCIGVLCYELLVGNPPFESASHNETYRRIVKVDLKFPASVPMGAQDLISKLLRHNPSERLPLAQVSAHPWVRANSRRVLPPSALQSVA
Ribosomal protein S6 kinase alpha-2 (Homo sapiens), sequence (Q15349 whole entry): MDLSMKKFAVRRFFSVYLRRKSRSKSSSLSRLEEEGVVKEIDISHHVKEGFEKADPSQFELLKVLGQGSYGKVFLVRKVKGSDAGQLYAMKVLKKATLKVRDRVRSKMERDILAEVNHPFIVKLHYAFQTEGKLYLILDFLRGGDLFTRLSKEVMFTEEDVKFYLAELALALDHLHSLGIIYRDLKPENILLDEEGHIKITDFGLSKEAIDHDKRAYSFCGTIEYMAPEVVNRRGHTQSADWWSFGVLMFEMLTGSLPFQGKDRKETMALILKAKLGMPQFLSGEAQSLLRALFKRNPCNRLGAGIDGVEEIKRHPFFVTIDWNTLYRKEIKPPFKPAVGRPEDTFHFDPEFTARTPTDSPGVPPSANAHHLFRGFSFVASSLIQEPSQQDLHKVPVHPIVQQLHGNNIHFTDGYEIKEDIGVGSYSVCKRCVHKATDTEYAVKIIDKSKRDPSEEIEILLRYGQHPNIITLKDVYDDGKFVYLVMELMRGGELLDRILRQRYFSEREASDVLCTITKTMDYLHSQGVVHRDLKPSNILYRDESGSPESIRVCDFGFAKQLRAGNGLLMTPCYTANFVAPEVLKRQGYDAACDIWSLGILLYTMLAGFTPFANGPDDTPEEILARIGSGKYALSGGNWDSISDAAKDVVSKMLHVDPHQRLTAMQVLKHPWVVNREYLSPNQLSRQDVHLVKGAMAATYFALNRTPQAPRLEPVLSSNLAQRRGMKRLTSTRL
Ribosomal protein S6 kinase alpha-6 (Homo sapiens), sequence (Q9UK32 whole entry): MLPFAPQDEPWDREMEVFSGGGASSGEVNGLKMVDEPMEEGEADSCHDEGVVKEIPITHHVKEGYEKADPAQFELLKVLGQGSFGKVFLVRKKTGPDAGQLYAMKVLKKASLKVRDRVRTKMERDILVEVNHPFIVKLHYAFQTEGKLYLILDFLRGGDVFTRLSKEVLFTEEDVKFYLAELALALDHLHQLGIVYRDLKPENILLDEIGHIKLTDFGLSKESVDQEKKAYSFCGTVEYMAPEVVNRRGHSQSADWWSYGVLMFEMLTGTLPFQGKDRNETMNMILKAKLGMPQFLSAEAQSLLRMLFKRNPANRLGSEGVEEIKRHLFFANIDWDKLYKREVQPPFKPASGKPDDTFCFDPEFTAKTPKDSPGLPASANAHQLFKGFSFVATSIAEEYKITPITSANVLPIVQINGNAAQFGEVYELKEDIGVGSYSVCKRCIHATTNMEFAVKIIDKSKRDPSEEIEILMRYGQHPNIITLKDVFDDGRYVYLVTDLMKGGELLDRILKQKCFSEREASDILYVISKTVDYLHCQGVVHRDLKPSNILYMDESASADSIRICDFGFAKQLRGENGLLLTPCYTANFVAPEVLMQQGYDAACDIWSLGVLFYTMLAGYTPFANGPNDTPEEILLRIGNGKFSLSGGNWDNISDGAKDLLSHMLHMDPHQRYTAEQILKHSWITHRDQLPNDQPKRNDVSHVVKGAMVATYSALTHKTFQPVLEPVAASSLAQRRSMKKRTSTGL

SMILES	Ratio Ki (Homo sapiens)	inhibition (INH) [2]	Kp uu [4]	clearance [5]	CL free (Rattus norvegicus)	CLhep predicted at 1 µM [6]	CLhep predicted at 1 µM [7]	IC50 [8]	Ki [9]	bioavailability [11]	CL free (Cynomolgus monkey)	half-life [12]	clearance [13]	fraction unbound at 4 h, 5 µM [14]	IC50 (Mus musculus)	inhibition (Mus musculus)	Activity (Cytochrome P450 2B6)	Activity (Cytochrome P450 1A2 [15])	Activity (Cytochrome P450 3A4)	other results
CNc1nc(Nc2cnn(CC(C)(C)O)c2Cl)ncc1C(F)(F)F	> 150																			bioavailability [1]: 5%
CNc1nc(Nc2cnn(C3COC3)c2C)ncc1C(F)(F)F	> 150	Not Active	0.3	56 mL/min/kg	115 mL/min/kg	17 mL/min/kg	2 mL/min/kg	29 nM	2 nM											IC50 (Cytochrome P450 1A2 [3]): 2000 nM; efflux ratio at 5 µM (MDR1 (P-gp, ABCB1)): 1.4
CNc1nc(Nc2cn(C(C)(C)C#N)nc2C)ncc1C(F)(F)F [DNL-201]			0.6	44 mL/min/kg	210 mL/min/kg	25 mL/min/kg	3 mL/min/kg	3 nM	0.7 nM	35%	100 mL/min/kg	2.2 h	19.7 mL/min/kg	0.197	3 nM	Dose-dependent effect	Active	Active	Active	Drug metabolism (Liver microsome [10]): Not Active; IC50 (Cytochrome P450 1A2 [16]): 700 nM; bioavailability [17]: 88%; inhibition [18]: 68%; inhibition [19]: 52%; inhibition [20]: 62%; inhibition [21]: 51%; Drug metabolism (Hepatocyte): Not Active; Ki [22]: 150 nM; solubility thermodynamic [23]: 100 µg/mL (≈ 295 µM)
CNc1nc(Nc2cnn([C@H]3CCN(C4COC4)C[C@@H]3F)c2Cl)ncc1C(F)(F)F (relative stereo)		Not Active	0.51	26 mL/min/kg	261 mL/min/kg	21 mL/min/kg	1 mL/min/kg	18.7 nM	2 nM	74%	43 mL/min/kg	4 h	7.8 mL/min/kg	0.179	20 nM	Dose-dependent effect	Not Active	Not Active	Not Active	inhibition (TAK1/TAB1 (Homo sapiens)): 54%; Drug metabolism (Liver microsome [24]): Not Active; Drug metabolism (Liver microsome [25]): Not Active; inhibition (INH) [26]: Not Active; bioavailability [27]: 90%
